Test results from paper PMC6407917, “Identification of GSK3186899/DDD853651 as a Preclinical Development Candidate for the Treatment of Visceral Leishmaniasis” (Journal of Medicinal Chemistry, 2018).

Key:
Assay in all cases: biochemical
Set-up in all cases: species or system HEK293/K-562/placenta mixed human extract; Kinobeads chemoproteomic competition binding, quantified by TMT LC-MS/MS, dose response up to 20 uM
AAK1 = AAK1 (Homo sapiens, UniProt Q2M2I8)
CAMKK2 = CAMKK2 (Homo sapiens, UniProt Q96RR4)
CDC42BPA = CDC42BPA (Homo sapiens, UniProt Q5VT25)
CIT = CIT (Homo sapiens, UniProt O14578)
EPHA3 = EPHA3 (Homo sapiens, UniProt P29320)
FES = FES (Homo sapiens, UniProt P07332)
GAK = GAK (Homo sapiens, UniProt O14976)
HIPK1 = HIPK1 (Homo sapiens, UniProt Q86Z02)
IKBKE = IKBKE (Homo sapiens, UniProt Q14164)
JAK1 = JAK1 (Homo sapiens, UniProt P23458)
JAK3 = JAK3 (Homo sapiens, UniProt P52333)
MAP3K3 = MAP3K3 (Homo sapiens, UniProt Q99759)
MAP3K4 = MAP3K4 (Homo sapiens, UniProt Q9Y6R4)
MAPK14 = MAPK14 (Homo sapiens, UniProt Q16539)
MAPK7 = MAPK7 (Homo sapiens, UniProt Q13164)
MERTK = MERTK (Homo sapiens, UniProt Q12866)
NLK = NLK (Homo sapiens, UniProt Q9UBE8)
PDXK = PDXK (Homo sapiens, UniProt O00764)
ULK1 = ULK1 (Homo sapiens, UniProt O75385)
ULK3 = ULK3 (Homo sapiens, UniProt Q6PHR2)
WNK4 = WNK4 (Homo sapiens, UniProt Q96J92)

Measured: IC50

Sequence of EPHA3 (P29320 whole entry): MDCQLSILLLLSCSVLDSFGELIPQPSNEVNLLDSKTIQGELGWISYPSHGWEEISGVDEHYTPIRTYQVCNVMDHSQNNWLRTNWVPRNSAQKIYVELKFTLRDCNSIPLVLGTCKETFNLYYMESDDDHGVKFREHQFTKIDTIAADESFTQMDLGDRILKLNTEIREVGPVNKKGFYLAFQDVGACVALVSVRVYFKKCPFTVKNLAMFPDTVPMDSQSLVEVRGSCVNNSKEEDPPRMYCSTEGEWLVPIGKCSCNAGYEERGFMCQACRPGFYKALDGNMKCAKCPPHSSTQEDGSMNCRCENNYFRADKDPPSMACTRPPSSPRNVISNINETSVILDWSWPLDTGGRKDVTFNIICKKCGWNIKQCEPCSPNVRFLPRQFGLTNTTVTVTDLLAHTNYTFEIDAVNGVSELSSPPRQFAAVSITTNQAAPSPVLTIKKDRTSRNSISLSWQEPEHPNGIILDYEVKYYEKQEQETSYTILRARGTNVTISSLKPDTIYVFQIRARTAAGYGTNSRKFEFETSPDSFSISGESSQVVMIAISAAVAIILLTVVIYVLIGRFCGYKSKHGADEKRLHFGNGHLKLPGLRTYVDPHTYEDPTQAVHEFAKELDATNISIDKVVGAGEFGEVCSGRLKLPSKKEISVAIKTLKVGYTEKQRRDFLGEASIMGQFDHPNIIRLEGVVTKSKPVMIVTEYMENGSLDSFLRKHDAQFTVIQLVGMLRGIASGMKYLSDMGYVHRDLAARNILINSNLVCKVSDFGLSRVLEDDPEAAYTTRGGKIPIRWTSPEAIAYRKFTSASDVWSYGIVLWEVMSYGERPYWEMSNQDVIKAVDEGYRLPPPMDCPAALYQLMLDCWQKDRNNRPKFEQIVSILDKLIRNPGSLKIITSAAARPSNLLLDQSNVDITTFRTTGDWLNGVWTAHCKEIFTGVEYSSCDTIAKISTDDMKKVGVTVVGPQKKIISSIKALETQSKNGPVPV
Sequence of MAP3K3 (Q99759 whole entry): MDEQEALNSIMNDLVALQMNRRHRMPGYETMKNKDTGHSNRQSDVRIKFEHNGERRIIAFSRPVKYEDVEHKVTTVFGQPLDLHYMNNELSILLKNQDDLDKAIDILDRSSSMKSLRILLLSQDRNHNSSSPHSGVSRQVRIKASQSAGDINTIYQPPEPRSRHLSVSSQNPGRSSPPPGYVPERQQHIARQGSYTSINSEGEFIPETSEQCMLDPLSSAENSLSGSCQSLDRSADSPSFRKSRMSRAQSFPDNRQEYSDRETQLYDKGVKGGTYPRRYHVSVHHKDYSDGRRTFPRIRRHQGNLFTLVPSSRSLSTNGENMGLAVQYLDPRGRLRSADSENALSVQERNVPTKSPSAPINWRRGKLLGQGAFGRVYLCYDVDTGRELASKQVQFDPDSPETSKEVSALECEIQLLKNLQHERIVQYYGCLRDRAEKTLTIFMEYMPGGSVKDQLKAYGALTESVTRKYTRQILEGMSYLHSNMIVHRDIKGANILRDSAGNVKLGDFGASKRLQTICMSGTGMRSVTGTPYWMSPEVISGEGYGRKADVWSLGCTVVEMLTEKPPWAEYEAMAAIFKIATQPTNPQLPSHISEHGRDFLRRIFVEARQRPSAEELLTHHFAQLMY
Sequence of CIT (O14578 whole entry): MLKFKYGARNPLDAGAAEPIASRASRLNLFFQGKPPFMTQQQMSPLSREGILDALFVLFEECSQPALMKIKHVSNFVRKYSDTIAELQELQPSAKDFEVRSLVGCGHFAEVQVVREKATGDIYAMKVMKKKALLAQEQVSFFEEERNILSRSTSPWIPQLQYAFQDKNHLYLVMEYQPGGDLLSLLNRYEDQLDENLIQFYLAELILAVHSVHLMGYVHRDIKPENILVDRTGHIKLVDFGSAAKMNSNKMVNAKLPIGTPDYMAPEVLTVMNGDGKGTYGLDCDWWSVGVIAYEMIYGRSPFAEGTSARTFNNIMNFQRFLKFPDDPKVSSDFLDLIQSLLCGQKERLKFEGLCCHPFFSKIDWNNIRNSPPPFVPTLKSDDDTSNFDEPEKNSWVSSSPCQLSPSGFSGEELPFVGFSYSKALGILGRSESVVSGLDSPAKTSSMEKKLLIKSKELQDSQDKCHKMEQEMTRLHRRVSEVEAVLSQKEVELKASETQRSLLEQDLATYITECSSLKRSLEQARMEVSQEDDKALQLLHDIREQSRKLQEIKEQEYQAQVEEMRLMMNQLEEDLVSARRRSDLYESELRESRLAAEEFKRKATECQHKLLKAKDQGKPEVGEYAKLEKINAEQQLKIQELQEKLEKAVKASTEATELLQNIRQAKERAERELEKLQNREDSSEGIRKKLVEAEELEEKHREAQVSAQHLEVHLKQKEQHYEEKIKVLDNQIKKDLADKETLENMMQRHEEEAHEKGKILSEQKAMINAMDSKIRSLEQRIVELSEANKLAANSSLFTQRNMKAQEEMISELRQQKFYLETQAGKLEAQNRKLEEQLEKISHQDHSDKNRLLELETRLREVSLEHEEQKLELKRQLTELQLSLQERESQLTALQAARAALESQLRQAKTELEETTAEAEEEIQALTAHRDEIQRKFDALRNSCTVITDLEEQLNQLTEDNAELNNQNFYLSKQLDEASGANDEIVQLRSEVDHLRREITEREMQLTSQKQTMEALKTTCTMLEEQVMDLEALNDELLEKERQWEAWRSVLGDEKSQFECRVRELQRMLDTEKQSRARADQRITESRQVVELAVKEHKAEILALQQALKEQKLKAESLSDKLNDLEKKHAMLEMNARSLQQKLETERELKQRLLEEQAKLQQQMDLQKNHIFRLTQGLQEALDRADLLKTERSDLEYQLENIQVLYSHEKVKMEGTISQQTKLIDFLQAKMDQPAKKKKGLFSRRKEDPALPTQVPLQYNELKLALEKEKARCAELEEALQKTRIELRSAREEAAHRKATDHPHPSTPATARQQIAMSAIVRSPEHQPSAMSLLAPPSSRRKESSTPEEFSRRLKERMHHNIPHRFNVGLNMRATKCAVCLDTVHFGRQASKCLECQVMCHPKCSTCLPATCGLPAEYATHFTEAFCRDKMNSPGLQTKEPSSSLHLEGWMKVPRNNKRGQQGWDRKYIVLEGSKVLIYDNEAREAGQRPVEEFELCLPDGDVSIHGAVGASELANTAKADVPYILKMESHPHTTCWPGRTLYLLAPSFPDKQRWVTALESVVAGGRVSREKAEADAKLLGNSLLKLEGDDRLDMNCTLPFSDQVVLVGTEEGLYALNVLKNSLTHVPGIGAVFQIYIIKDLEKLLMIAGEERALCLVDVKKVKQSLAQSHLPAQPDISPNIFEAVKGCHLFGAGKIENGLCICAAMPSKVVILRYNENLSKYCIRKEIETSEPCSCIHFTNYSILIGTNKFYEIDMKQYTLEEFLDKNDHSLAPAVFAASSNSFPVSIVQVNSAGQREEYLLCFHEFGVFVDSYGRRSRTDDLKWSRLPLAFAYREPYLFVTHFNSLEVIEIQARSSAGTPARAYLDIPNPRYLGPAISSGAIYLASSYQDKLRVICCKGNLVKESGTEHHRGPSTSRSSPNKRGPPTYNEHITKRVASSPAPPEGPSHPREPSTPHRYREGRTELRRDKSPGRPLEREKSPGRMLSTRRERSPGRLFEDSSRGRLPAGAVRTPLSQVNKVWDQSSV
Sequence of JAK1 (P23458 whole entry): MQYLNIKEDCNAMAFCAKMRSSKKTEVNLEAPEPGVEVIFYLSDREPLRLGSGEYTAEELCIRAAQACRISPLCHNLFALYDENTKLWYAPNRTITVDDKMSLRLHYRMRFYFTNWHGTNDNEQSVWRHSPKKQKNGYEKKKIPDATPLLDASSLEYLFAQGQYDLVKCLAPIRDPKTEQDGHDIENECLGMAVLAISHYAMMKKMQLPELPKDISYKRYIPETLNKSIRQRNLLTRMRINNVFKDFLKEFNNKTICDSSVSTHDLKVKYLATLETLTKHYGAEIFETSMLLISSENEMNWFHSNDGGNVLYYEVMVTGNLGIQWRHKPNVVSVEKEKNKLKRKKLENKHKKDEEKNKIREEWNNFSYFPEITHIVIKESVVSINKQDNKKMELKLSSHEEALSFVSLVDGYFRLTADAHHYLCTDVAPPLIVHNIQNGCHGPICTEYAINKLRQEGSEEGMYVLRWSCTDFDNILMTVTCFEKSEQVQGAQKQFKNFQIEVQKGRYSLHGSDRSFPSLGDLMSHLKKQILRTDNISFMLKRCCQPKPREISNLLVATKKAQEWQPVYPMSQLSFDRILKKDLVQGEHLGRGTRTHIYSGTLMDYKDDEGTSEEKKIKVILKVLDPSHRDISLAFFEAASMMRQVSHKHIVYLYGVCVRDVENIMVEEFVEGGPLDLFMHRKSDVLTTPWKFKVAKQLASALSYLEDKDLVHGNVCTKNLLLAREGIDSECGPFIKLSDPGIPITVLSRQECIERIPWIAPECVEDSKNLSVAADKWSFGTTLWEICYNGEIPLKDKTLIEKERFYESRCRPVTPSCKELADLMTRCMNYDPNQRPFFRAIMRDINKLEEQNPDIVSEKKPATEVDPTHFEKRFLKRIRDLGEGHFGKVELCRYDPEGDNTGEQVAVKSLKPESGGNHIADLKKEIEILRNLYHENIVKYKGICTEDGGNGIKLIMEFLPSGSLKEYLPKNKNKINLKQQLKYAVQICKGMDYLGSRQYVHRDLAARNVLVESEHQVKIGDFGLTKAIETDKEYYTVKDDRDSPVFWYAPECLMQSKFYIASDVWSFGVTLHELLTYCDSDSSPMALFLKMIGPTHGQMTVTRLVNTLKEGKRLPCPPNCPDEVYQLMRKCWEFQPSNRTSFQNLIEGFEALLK
Sequence of PDXK (O00764 whole entry): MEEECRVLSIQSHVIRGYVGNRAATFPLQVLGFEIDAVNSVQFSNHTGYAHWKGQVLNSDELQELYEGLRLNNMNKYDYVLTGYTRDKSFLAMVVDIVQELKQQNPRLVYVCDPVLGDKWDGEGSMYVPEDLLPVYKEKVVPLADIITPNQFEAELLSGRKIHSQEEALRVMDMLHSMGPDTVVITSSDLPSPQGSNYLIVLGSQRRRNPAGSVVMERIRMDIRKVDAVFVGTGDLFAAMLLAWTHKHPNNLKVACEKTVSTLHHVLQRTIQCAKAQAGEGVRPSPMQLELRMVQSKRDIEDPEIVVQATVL

COc1nc(N[C@H]2CC[C@H](NS(=O)(=O)CC(C)C)CC2)nc2[nH]nc(N3CCOC[C@H]3C)c12 [compound 39, N-(trans-4-((4-Methoxy-3-((R)-3-methylmorpholino)-1H-pyrazolo[3,4-d]pyrimidin-6-yl)amino)cyclohexyl)-2-methylpropane-1-sulfonamide]
3.5 µM: NLK
≥ 20 µM: all other assays above
